Columns and labels:
Test in all cases: scanMAX Kinase assay panel
Type in all cases: binding
Settings in all cases: read-out: % control
ABL2 = ABL2 (Homo sapiens (Human), UniProt P42684)
In short: (§1)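 % control read-out: DMSO vehicle = 100%, positive control = 0%, test compound scaled between these two. Selectivity profiling was done on the scanMAX kinase panel.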

ACVR2A = ACVR2A (Homo sapiens (Human), UniProt P27037)
In short: as §1

AURKA = AURKA (Homo sapiens (Human), UniProt O14965)
In short: as §1

AXL = AXL (Homo sapiens (Human), UniProt P30530)
In short: as §1

BMPR1A = BMPR1A (Homo sapiens (Human), UniProt P36894)
In short: as §1

CAMK2B = CAMK2B (Homo sapiens (Human), UniProt Q13554)
In short: as §1

CAMK2G = CAMK2G (Homo sapiens (Human), UniProt Q13555)
In short: as §1

CDK4-cyclinD3 = CDK4-cyclinD3 (Homo sapiens (Human), UniProt P11802)
In short: as §1

CDKL2 = CDKL2 (Homo sapiens (Human), UniProt Q92772)
In short: as §1

DCAMKL3 = DCAMKL3 (Homo sapiens (Human), UniProt Q9C098)
In short: as §1

EGFR = EGFR (Homo sapiens (Human), UniProt P00533)
In short: as §1

EGFR(L747-T751del, Sins) = EGFR(L747-T751del, Sins) (Homo sapiens (Human), UniProt P00533, DEL747-751/INS746S)
In short: as §1

EPHB3 = EPHB3 (Homo sapiens (Human), UniProt P54753)
In short: as §1

FLT4 = FLT4 (Homo sapiens (Human), UniProt P35916)
In short: as §1

GCN2(Kin.Dom.2, S808G) = GCN2(Kin.Dom.2, S808G) (Homo sapiens (Human), UniProt Q9P2K8, S808G)
In short: as §1

ICK = ICK (Homo sapiens (Human), UniProt Q9UPZ9)
In short: as §1

IKK-alpha = IKK-alpha (Homo sapiens (Human), UniProt O15111)
In short: as §1

KIT(V559D, T670I) = KIT(V559D, T670I) (Homo sapiens (Human), UniProt P10721, T670I/V559D)
In short: as §1

MAP4K2 = MAP4K2 (Homo sapiens (Human), UniProt Q12851)
In short: as §1

MEK4 = MEK4 (Homo sapiens (Human), UniProt P45985)
In short: as §1

MET(Y1235D) = MET(Y1235D) (Homo sapiens (Human), UniProt P08581, Y1235D)
In short: as §1

MUSK = MUSK (Homo sapiens (Human), UniProt O15146)
In short: as §1

NEK11 = NEK11 (Homo sapiens (Human), UniProt Q8NG66)
In short: as §1

NEK4 = NEK4 (Homo sapiens (Human), UniProt P51957)
In short: as §1

PIK3C2B = PIK3C2B (Homo sapiens (Human), UniProt O00750)
In short: as §1

PIK3CA(H1047Y) = PIK3CA(H1047Y) (Homo sapiens (Human), UniProt P42336, H1047Y)
In short: as §1

PIK3CA(I800L) = PIK3CA(I800L) (Homo sapiens (Human), UniProt P42336, I800L)
In short: as §1

PIP5K1C = PIP5K1C (Homo sapiens (Human), UniProt O60331)
In short: as §1

PLK1 = PLK1 (Homo sapiens (Human), UniProt P53350)
In short: as §1

PYK2 = PYK2 (Homo sapiens (Human), UniProt Q14289)
In short: as §1

[1] = target: RSK3(Kin.Dom.2-C-terminal) (Homo sapiens (Human), UniProt Q15349)
In short: as §1

SNRK = SNRK (Homo sapiens (Human), UniProt Q9NRH2)
In short: as §1

SRPK1 = SRPK1 (Homo sapiens (Human), UniProt Q96SB4)
In short: as §1

TRKA = TRKA (Homo sapiens (Human), UniProt P04629)
In short: as §1

TRKB = TRKB (Homo sapiens (Human), UniProt Q16620)
In short: as §1

VEGFR2 = VEGFR2 (Homo sapiens (Human), UniProt P35968)
In short: as §1

WEE1 = WEE1 (Homo sapiens (Human), UniProt P30291)
In short: as §1

YSK1 = YSK1 (Homo sapiens (Human), UniProt O00506)
In short: as §1

GCN2(Kin.Dom.2, S808G), sequence (Q9P2K8 590-1001 S808G): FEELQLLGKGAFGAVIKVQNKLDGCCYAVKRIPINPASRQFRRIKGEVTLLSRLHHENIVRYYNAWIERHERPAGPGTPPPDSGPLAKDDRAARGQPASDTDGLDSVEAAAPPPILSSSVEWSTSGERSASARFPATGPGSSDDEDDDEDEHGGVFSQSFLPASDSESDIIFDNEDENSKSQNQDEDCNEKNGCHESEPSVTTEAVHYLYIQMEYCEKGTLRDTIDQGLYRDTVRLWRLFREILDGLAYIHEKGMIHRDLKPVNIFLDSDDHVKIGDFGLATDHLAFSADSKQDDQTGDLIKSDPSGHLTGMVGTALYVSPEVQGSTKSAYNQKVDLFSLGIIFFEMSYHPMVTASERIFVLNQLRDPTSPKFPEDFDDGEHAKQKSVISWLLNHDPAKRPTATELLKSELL
BMPR1A, sequence (P36894 24-532): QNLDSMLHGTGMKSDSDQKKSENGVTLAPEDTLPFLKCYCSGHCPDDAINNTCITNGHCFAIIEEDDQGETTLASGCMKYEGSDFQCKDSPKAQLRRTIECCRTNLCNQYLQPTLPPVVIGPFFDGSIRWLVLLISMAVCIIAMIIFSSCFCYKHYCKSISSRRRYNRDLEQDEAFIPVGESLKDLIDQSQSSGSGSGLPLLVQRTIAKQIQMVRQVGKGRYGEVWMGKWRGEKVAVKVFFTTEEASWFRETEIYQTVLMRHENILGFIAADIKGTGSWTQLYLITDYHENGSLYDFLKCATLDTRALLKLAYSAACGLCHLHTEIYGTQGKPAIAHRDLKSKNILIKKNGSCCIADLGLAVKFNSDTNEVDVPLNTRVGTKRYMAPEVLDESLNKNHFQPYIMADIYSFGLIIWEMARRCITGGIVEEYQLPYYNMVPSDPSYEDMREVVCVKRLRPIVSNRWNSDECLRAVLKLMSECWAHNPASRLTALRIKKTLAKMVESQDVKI
MET(Y1235D), sequence (P08581 25-1390 Y1235D): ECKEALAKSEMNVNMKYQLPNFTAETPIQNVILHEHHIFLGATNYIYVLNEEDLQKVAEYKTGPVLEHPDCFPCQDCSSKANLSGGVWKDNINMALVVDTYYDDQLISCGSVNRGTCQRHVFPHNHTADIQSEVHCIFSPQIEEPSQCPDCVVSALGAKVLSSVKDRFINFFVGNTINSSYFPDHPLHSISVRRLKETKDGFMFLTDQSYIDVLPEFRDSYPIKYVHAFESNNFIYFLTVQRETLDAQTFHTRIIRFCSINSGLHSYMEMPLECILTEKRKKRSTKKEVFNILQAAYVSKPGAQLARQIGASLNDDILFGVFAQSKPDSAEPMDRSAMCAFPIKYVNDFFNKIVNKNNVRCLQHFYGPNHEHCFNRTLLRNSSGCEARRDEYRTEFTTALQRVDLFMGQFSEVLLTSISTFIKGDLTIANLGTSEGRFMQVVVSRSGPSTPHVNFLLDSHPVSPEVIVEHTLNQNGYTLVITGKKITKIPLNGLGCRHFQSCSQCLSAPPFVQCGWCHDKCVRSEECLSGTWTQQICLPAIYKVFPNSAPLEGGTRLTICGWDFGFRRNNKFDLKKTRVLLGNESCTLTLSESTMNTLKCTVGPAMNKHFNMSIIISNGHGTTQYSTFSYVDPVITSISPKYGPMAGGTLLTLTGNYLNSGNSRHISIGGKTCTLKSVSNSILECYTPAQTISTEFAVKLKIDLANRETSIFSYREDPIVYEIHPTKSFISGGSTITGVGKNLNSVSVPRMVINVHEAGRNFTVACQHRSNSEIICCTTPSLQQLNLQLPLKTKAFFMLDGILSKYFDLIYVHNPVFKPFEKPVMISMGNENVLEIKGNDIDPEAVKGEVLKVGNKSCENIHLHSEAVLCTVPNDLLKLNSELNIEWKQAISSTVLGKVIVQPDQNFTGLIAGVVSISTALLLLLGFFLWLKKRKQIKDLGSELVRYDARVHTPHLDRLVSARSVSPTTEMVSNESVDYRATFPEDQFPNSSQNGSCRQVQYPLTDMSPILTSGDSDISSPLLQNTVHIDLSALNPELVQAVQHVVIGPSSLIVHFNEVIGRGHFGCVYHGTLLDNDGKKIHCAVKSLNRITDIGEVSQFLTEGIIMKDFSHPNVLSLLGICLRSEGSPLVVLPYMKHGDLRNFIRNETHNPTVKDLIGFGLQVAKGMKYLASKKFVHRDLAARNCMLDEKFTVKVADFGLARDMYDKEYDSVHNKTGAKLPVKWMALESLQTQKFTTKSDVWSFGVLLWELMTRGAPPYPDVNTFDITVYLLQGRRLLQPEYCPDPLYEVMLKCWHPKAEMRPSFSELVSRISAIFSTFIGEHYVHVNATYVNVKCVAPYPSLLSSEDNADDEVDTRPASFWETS
KIT(V559D, T670I), sequence (P10721 26-976 V559D/T670I): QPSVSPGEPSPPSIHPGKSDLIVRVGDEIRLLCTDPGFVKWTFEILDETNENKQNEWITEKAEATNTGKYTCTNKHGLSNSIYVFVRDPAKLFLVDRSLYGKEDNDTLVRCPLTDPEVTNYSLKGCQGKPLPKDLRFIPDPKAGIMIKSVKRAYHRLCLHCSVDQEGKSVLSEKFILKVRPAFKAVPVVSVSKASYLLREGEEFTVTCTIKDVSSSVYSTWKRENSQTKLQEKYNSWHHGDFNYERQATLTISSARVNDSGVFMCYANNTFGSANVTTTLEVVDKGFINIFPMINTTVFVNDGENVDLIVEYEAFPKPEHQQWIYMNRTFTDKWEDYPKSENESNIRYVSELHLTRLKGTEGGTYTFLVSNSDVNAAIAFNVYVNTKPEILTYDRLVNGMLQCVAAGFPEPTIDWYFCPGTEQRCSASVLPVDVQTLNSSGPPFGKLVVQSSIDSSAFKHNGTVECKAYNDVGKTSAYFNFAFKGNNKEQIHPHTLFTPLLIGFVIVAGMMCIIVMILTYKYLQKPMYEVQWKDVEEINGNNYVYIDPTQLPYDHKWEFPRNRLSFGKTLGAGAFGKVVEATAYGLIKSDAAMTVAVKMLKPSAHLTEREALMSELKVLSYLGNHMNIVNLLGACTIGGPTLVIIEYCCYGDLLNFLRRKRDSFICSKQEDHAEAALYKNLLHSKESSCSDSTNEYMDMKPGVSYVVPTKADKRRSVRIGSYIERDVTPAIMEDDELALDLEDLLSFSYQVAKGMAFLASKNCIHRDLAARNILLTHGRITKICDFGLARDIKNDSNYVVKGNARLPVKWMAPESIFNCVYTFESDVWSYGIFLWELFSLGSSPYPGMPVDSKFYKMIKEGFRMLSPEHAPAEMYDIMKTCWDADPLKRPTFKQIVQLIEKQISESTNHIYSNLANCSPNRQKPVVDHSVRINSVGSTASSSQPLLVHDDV
PIP5K1C, sequence (O60331 whole entry): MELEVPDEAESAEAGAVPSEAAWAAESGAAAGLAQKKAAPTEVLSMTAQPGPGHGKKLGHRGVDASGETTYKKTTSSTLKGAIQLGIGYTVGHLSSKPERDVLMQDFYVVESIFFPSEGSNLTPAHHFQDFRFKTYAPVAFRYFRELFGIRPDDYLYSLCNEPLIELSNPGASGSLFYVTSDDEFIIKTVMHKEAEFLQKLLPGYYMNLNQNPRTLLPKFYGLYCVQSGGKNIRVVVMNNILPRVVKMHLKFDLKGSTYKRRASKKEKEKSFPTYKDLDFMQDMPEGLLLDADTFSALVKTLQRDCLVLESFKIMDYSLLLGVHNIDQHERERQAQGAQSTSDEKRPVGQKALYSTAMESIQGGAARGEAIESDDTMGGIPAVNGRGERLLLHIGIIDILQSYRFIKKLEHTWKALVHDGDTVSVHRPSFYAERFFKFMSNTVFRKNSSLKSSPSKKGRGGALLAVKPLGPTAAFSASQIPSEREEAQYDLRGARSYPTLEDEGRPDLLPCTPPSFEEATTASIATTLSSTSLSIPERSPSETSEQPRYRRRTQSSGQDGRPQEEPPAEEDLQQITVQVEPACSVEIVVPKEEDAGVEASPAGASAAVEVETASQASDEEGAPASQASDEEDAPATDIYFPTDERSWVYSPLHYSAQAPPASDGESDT
CDKL2, sequence (Q92772 whole entry): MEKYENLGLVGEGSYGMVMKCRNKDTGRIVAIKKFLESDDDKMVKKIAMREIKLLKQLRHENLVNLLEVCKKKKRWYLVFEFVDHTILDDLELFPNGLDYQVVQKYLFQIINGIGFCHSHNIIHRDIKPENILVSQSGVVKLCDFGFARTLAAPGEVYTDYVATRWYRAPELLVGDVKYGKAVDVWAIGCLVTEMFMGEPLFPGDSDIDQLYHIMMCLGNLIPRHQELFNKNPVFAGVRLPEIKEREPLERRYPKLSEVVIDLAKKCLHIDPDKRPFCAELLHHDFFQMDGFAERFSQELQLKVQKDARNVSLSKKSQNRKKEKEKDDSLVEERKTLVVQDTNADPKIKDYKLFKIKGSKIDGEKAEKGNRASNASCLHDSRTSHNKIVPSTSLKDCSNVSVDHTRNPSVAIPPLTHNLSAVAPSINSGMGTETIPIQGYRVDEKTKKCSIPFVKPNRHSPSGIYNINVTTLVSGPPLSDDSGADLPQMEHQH
SRPK1, sequence (Q96SB4 whole entry): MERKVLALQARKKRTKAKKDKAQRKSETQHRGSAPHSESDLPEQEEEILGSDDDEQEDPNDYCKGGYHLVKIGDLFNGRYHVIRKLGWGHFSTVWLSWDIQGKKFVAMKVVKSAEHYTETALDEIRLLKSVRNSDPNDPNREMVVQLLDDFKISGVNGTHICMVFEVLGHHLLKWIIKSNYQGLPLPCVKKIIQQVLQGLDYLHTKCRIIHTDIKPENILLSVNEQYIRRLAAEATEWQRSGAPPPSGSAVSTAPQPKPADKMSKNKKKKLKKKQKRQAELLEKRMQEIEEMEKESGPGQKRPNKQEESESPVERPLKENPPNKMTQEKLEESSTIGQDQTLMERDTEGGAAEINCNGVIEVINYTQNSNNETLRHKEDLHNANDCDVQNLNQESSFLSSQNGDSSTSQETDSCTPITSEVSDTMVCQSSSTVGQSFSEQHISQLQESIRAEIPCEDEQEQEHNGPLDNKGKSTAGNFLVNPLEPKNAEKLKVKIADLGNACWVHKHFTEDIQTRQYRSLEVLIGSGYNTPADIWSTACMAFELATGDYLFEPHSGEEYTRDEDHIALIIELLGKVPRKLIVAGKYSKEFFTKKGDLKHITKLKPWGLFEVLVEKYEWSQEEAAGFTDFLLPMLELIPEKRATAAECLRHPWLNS

`CCNc1cc(Nc2ccc(C(=O)N3CCC(N4CCOCC4)CC3)cc2OC)nc2[nH]cc(C#N)c12` [Example 18, 4-(ethylamino)-6-((2-methoxy-4-(4-morpholinopiperidine-1-carbonyl)phenyl)amino)-1H-pyrrolo[2,3-b]pyridine-3-carbonitrile] gave a remaining binding at 1 µM (ABL2) of 93%, a remaining binding at 1 µM (ACVR2A) of 100% and a remaining binding at 1 µM (AURKA) of 94%. The remaining binding at 1 µM (AXL) was 98%, the remaining binding at 1 µM (BMPR1A) was 74% and the remaining binding at 1 µM (CAMK2B) was 73%. The remaining binding at 1 µM (CAMK2G) was 77%, the remaining binding at 1 µM (CDK4-cyclinD3) was 100% and the remaining binding at 1 µM (CDKL2) was 100%. The remaining binding at 1 µM (DCAMKL3) was 84%, the remaining binding at 1 µM (EGFR) was 100% and the remaining binding at 1 µM (EGFR(L747-T751del, Sins)) was 100%. It also gave a remaining binding at 1 µM (EPHB3) of 93%, a remaining binding at 1 µM (FLT4) of 100% and a remaining binding at 1 µM (GCN2(Kin.Dom.2, S808G)) of 97%. For the same compound, the remaining binding at 1 µM (ICK) was 84%, the remaining binding at 1 µM (IKK-alpha) was 44% and the remaining binding at 1 µM (KIT(V559D, T670I)) was 48%. The remaining binding at 1 µM (MAP4K2) was 61%, the remaining binding at 1 µM (MEK4) was 0% and the remaining binding at 1 µM (MET(Y1235D)) was 100%. The remaining binding at 1 µM (MUSK) was 97%, the remaining binding at 1 µM (NEK11) was 100% and the remaining binding at 1 µM (NEK4) was 86%. The remaining binding at 1 µM (PIK3C2B) was 100%, the remaining binding at 1 µM (PIK3CA(H1047Y)) was 71% and the remaining binding at 1 µM (PIK3CA(I800L)) was 100%. It also gave a remaining binding at 1 µM (PIP5K1C) of 67%, a remaining binding at 1 µM (PLK1) of 41% and a remaining binding at 1 µM (PYK2) of 60%. It also gave a remaining binding at 1 µM [1] of 12%, a remaining binding at 1 µM (SNRK) of 100% and a remaining binding at 1 µM (SRPK1) of 89%. For the same compound, the remaining binding at 1 µM (TRKA) was 86%, the remaining binding at 1 µM (TRKB) was 100% and the remaining binding at 1 µM (VEGFR2) was 63%. It also gave a remaining binding at 1 µM (WEE1) of 100% and a remaining binding at 1 µM (YSK1) of 99%.

In the case of `CCNc1cc(Nc2ccc(C(=O)N3CCC(N4CCOCC4)CC3)cc2OC)nc2[nH]cc(C(F)(F)F)c12` [Example 57, (4-((4-(ethylamino)-3-(trifluoromethyl)-1H-pyrrolo[2,3-b]pyridin-6-yl)amino)-3-methoxyphenyl) (4-morpholinopiperidin-1-yl)methanone], the remaining binding at 1 µM (ABL2) is reported as 98%, the remaining binding at 1 µM (ACVR2A) is reported as 99% and the remaining binding at 1 µM (AURKA) is reported as 83%. For the same compound, the remaining binding at 1 µM (AXL) was 100%, the remaining binding at 1 µM (BMPR1A) was 80% and the remaining binding at 1 µM (CAMK2B) was 80%. The remaining binding at 1 µM (CAMK2G) was 72%, the remaining binding at 1 µM (CDK4-cyclinD3) was 100% and the remaining binding at 1 µM (CDKL2) was 90%. For the same compound, the remaining binding at 1 µM (DCAMKL3) was 88%, the remaining binding at 1 µM (EGFR) was 59% and the remaining binding at 1 µM (EGFR(L747-T751del, Sins)) was 97%. For the same compound, the remaining binding at 1 µM (EPHB3) was 85%, the remaining binding at 1 µM (FLT4) was 99% and the remaining binding at 1 µM (GCN2(Kin.Dom.2, S808G)) was 91%. It also gave a remaining binding at 1 µM (ICK) of 100%, a remaining binding at 1 µM (IKK-alpha) of 100% and a remaining binding at 1 µM (KIT(V559D, T670I)) of 78%. The remaining binding at 1 µM (MAP4K2) was 100%, the remaining binding at 1 µM (MEK4) was 98% and the remaining binding at 1 µM (MET(Y1235D)) was 85%. For the same compound, the remaining binding at 1 µM (MUSK) was 100%, the remaining binding at 1 µM (NEK11) was 100% and the remaining binding at 1 µM (NEK4) was 99%. It also gave a remaining binding at 1 µM (PIK3C2B) of 78%, a remaining binding at 1 µM (PIK3CA(H1047Y)) of 73% and a remaining binding at 1 µM (PIK3CA(I800L)) of 69%. The remaining binding at 1 µM (PIP5K1C) was 69%, the remaining binding at 1 µM (PLK1) was 100% and the remaining binding at 1 µM (PYK2) was 76%. It also gave a remaining binding at 1 µM [1] of 82%, a remaining binding at 1 µM (SNRK) of 100% and a remaining binding at 1 µM (SRPK1) of 85%. It also gave a remaining binding at 1 µM (TRKA) of 100%, a remaining binding at 1 µM (TRKB) of 100% and a remaining binding at 1 µM (VEGFR2) of 95%. The remaining binding at 1 µM (WEE1) was 100% and the remaining binding at 1 µM (YSK1) was 73%.
